Consider ten molecules from US4278797A, “Intermediates to phenylmorphans and method of preparation thereof” (priority 1980, dated 1981).

For data set [1] the following is noted: compared with morphine or with 5-(3-hydroxyphenyl)-2-methylmorphan; literature; cited from earlier work.
For data set [2] the following is noted: literature; cited from earlier work.
The subject of another data set is Rat tail jerk. Description: rat-tail jerk assay (light beam or heat source applied to the tail). It counts as in vivo. Conditions: dose causing a two second delay in tail removal compared to control animals receiving no drug; for ED (2 s delay): Rattus norvegicus, sc, subcutaneous, read-out: Rat tail jerk subcutaneous injection ED2 seconds. Here is the method:
The phenylmorphan derivatives provided by this invention are useful as analgesics in the treatment of pain in animals suffering from pain and in need of treatment. […] One such test is the rat-tail jerk assay. In this test, a light beam or heat source is applied to the tail of a rat. The pain threshold of the animal is measured by the latency of the rat to remove its tail from the pain source. Column 2 in the following table presents the effective subcutaneous dose in mg/kg of a number of the compounds of this invention which causes a two second delay (ED2 sec) in tail removal compared to the control animals receiving no drug.

The test system of the next data set is Mouse writhing. Description: mouse writhing test (intraperitoneal acetic acid). It counts as in vivo, mice. Conditions: dose reducing writhing by fifty percent; for ED50: Mus musculus. From the text: In another test designed to show analgesic activity, mice are given an intraperitaneal injection of acetic acid which causes the animals to writh. An effective analgesic is one that reduces the writhings. Column 3 of the following table presents the effective sucutaneous and oral doses in mg/kg of a compound of this invention required to reduce the writing in test animals by fifty percent (ED50).

[3] abbreviates: sc, subcutaneous, read-out: Mouse writhing s.c. ED50.
[4] abbreviates: oral, read-out: Mouse writhing oral ED50.

Where two headings read alike, the source gives them in different places.

For the molecule `CN1CCC2(c3cccc(O)c3)CCCC1C2` (racemic) [racemic 5-(3-hydroxyphenyl)-2-methylmorphan, 5-(3-hydroxyphenyl)-2-methylmorphan], the analgesic potency result in data set [1] was “nearly equivalent to that of morphine”.

Take `CN1CCC2(c3cccc(O)c3)CCCC1C2` (single isomer, unassigned; (-)) [(-)-isomer of 5-(3-hydroxyphenyl)-2-methylmorphan, (-)-5-(3-hydroxyphenyl)-2-methylmorphan]: the analgesic potency entry in data set [1] is given as “morphine-like potency”. In addition, the physical dependence capacity entry in data set [2] is “no physical dependence capacity”.

For the molecule `CC1CC2CC(c3cccc(O)c3)(C1)CC(C)N2C` (stereo not drawn) [2,3,7-Trimethyl-5-(3-hydroxyphenyl)morphan], the ED (2 s delay) in the data set on Rat tail jerk amounted to 0.5 mg/kg. The values for the ED50 in the data set on Mouse writhing (setting [3]) and with Mouse writhing (setting [4]) were 0.66 mg/kg and 14 mg/kg, respectively.

Regarding `COc1cccc(C23CC(C)CC(C2)N(C)C(C)C3)c1` (stereo not drawn) [2,3,7-Trimethyl-5-(3-methoxyphenyl)morphan], the ED (2 s delay) in the data set with Rat tail jerk is 20 mg/kg. In addition, the 50% effective dose (ED50) was 7.8 mg/kg in the data set with Mouse writhing (setting [3]) and 22 mg/kg in the data set with Mouse writhing (setting [4]).

On to `CC1CC2(c3cccc(O)c3)CCCC(C2)N1C` (stereo not drawn) [2,3-dimethyl-5-(3-hydroxyphenyl)morphan, 2,3-Dimethyl-5-(3-hydroxyphenyl)morphan], for which, in the data set with Rat tail jerk, the ED (2 s delay) turned out to be 2 mg/kg. In addition, the ED50 stood at 2 mg/kg in the data set with Mouse writhing (setting [3]) and 23 mg/kg in the data set with Mouse writhing (setting [4]).

Consider `COc1cccc(C23CCCC(C2)N(C)C(C)C3)c1` (stereo not drawn) [2,3-dimethyl-5-(3-methoxyphenyl)morphan, 2,3-Dimethyl-5-(3-methoxyphenyl)morphan], for which, in the data set with Rat tail jerk, the “Rat tail jerk subcutaneous injection ED2 seconds” value was 15.0 mg/kg. Further, the “Mouse writhing oral ED50” value in the data set on Mouse writhing (oral) stood at 17.0 mg/kg. Moreover, the “Mouse writhing s.c. ED50” value in the data set with Mouse writhing (subcutaneous) is recorded as 13.0 mg/kg.

Turning to `CC1CC2CC(c3cccc(O)c3)(CCN2C)C1` (stereo not drawn) [2,7-dimethyl-5-(3-hydroxyphenyl)morphan, 2,7-Dimethyl-5-(3-hydroxyphenyl)morphan], the ED (2 s delay) with Rat tail jerk was 0.5 mg/kg. In addition, the ED50 in the data set with Mouse writhing (setting [3]) came to 0.72 mg/kg; in the data set on Mouse writhing (setting [4]) it was 28.5 mg/kg.

On to `COc1cccc(C23CCN(C)C(CC(C)C2)C3)c1` (stereo not drawn) [2,7-dimethyl-5-(3-methoxyphenyl)morphan, 2,7-Dimethyl-5-(3-methoxyphenyl)morphan], for which the ED (2 s delay) in the data set with Rat tail jerk is 10 mg/kg. In addition, the ED50 in the data set on Mouse writhing (setting [3]) is 3.5 mg/kg; in the data set on Mouse writhing (setting [4]), 28.5 mg/kg.

Consider `CN1CCC2(c3cccc(O)c3)CCCC1C2` (stereo not drawn) [2-methyl-5-(3-hydroxyphenyl)-morphan, 2-Methyl-5-(3-hydroxyphenyl)morphan], for which, in the data set with Rat tail jerk, the ED (2 s delay) came to 1 mg/kg. The ED50 was 1.3 mg/kg in the data set on Mouse writhing (setting [3]) and 29 mg/kg in the data set on Mouse writhing (setting [4]).

In the case of `COc1cccc(C23CCCC(C2)N(C)CC3)c1` (stereo not drawn) [2-methyl-5-(3-methoxyphenyl)-morphan, 2-Methyl-5-(3-methoxyphenyl)morphan], the ED (2 s delay) with Rat tail jerk was found to be 10 mg/kg. The ED50 with Mouse writhing (setting [3]) stood at 9.6 mg/kg; with Mouse writhing (setting [4]), 27.5 mg/kg.
